This experiment deals with shock induced in lab rodents. In words: Survival of lab rodents after induced shock, treated with digestive enzyme inhibitor. The class given is in vivo, rodent. The source says: The present invention is based on the latest research using rodent models of human hemorrhagic shock. Here it has been discovered that the sudden lowering of blood pressure that occurs in people suffering from […] can provoke the body's digestive enzymes to break down the body's own intestinal and other tissues as if it were food. Such enzymes' abnormal actions may be defined as “auto-digestion.” Auto-digestion is dangerous because not only does it injure healthy tissue but also contributes to multi-organ failure, which can be fatal.
The healthy cells of the animals' intestinal tissue react to auto-digestion by releasing a slew of substances that can be toxic to the heart and other body organs. These substances, termed cytotoxic mediators, can reach these body organs via the blood stream. In recent studies, shock was induced in 19 lab rodents, all of which were then treated with therapies that mirror the emergency room care given to many human patients who suffer shock, which typically occurs when blood flow to the heart, lungs and other body organs is slowed as a result of trauma, dehydration, heart attack, stroke or radiation.
A total of 10 of the 19 lab rodents in shock were also treated with the experimental digestive enzyme inhibitor called ANGD. […] However, only one of the nine “untreated” animals in shock survived. […]

`CS(=O)(=O)O.CS(=O)(=O)O.N=C(N)Nc1ccc(C(=O)Oc2ccc3cc(C(=N)N)ccc3c2)cc1` [ANGD]: the animals surviving result (10 of 19 lab rodents in shock treated with ANGD plus basic shock care, one of nine untreated survived) is reported as “Eight of the ten survived”. In addition, the survival rate entry (lab animals in which shock had been induced) is given as “dramatically improved the survival rate”.

The values above are taken from patent publication US20100179091A1, “Treatment of Conditions Related to Shock” (THE REGENTS OF THE UNIVERSITY OF CALIFORNIA, priority 2007, published 2010).
